Assay results taken from the NIST ThermoML archive (doi:10.1021/je100832h).
Numbers after ± are expanded uncertainties.

What was measured:
[1] = xn = mol fraction of the nth substance listed; conditions: 101.32 kPa, Liquid, Vibrating tube method
[2] = excess molar enthalpy (molar enthalpy of mixing); xn = mol fraction of the nth substance listed; conditions: 291.15 K, 101 kPa, Liquid, Calvet calorimetry

CCCCCCCCC [nonane] + CCOC(C)=O
[1]
Conditions | mass density [kg/m3]
291.15 K, x2 = 0 | 719.2 ± 0.56
291.15 K, x2 = 0.0328 | 721.88 ± 0.66
291.15 K, x2 = 0.0796 | 726 ± 0.67
291.15 K, x2 = 0.1292 | 730.54 ± 0.69
291.15 K, x2 = 0.2225 | 740.13 ± 0.72
291.15 K, x2 = 0.3076 | 750 ± 0.77
291.15 K, x2 = 0.3932 | 761.25 ± 0.81
291.15 K, x2 = 0.4659 | 771.77 ± 0.87
291.15 K, x2 = 0.5694 | 788.99 ± 0.92
291.15 K, x2 = 0.6015 | 794.91 ± 0.99
291.15 K, x2 = 0.6514 | 804.7 ± 1
291.15 K, x2 = 0.7041 | 815.84 ± 1.1
291.15 K, x2 = 0.7547 | 827.59 ± 1.2
291.15 K, x2 = 0.8076 | 840.96 ± 1.2
291.15 K, x2 = 0.8502 | 852.64 ± 1.3
291.15 K, x2 = 0.8954 | 866.2 ± 1.4
291.15 K, x2 = 0.9307 | 877.58 ± 1.6
291.15 K, x2 = 0.9918 | 899.59 ± 1.8
298.15 K, x2 = 0 | 713.85 ± 0.55
298.15 K, x2 = 0.0652 | 719.2 ± 0.65
298.15 K, x2 = 0.1102 | 723.17 ± 0.68
298.15 K, x2 = 0.1906 | 730.94 ± 0.7
298.15 K, x2 = 0.2667 | 739.14 ± 0.73
298.15 K, x2 = 0.3377 | 747.65 ± 0.77
298.15 K, x2 = 0.4128 | 757.7 ± 0.81
298.15 K, x2 = 0.4737 | 766.6 ± 0.85
298.15 K, x2 = 0.5212 | 774.12 ± 0.9
298.15 K, x2 = 0.5875 | 785.5 ± 0.93
298.15 K, x2 = 0.6305 | 793.54 ± 0.99
298.15 K, x2 = 0.6743 | 802.32 ± 1.1
298.15 K, x2 = 0.7212 | 812.53 ± 1.1
298.15 K, x2 = 0.767 | 823.2 ± 1.2
298.15 K, x2 = 0.8024 | 832.16 ± 1.2
298.15 K, x2 = 0.8428 | 843.01 ± 1.3
298.15 K, x2 = 0.8654 | 849.38 ± 1.4
298.15 K, x2 = 0.9419 | 873.16 ± 1.5
298.15 K, x2 = 0.9564 | 878.07 ± 1.6
318.15 K, x2 = 0 | 698.09 ± 0.54
318.15 K, x2 = 0.0372 | 700.83 ± 0.63
318.15 K, x2 = 0.1287 | 708.3 ± 0.65
318.15 K, x2 = 0.2206 | 717 ± 0.69
318.15 K, x2 = 0.3125 | 726.84 ± 0.72
318.15 K, x2 = 0.3941 | 736.68 ± 0.77
318.15 K, x2 = 0.4659 | 746.38 ± 0.81
318.15 K, x2 = 0.5311 | 756.19 ± 0.87
318.15 K, x2 = 0.5965 | 767.1 ± 0.93
318.15 K, x2 = 0.6714 | 781.02 ± 0.98
318.15 K, x2 = 0.7111 | 789.15 ± 1.1
318.15 K, x2 = 0.7598 | 799.77 ± 1.1
318.15 K, x2 = 0.8122 | 812.28 ± 1.2
318.15 K, x2 = 0.8596 | 824.75 ± 1.3
318.15 K, x2 = 0.8955 | 835.04 ± 1.4
318.15 K, x2 = 0.936 | 847.56 ± 1.4
318.15 K, x2 = 0.9808 | 862.66 ± 1.5
328.15 K, x2 = 0 | 690.4 ± 0.54
328.15 K, x2 = 0.0202 | 691.7 ± 0.6
328.15 K, x2 = 0.1246 | 699.9 ± 0.64
328.15 K, x2 = 0.2225 | 708.81 ± 0.67
328.15 K, x2 = 0.3109 | 717.88 ± 0.71
328.15 K, x2 = 0.3923 | 727.35 ± 0.75
328.15 K, x2 = 0.4644 | 736.84 ± 0.8
328.15 K, x2 = 0.5377 | 747.63 ± 0.85
328.15 K, x2 = 0.6125 | 759.98 ± 0.94
328.15 K, x2 = 0.7233 | 781.1 ± 0.99
328.15 K, x2 = 0.7593 | 788.8 ± 1.1
328.15 K, x2 = 0.8102 | 800.56 ± 1.1
328.15 K, x2 = 0.8505 | 810.9 ± 1.2
328.15 K, x2 = 0.8934 | 822.54 ± 1.3
328.15 K, x2 = 0.9507 | 840.17 ± 1.4
328.15 K, x2 = 0.9876 | 852.64 ± 1.5

[2]
Conditions | excess molar enthalpy [kJ/mol]
x2 = 0.0872 | 0.551 ± 0.012
x2 = 0.1735 | 0.942 ± 0.02
x2 = 0.2499 | 1.25 ± 0.027
x2 = 0.3159 | 1.47 ± 0.031
x2 = 0.3746 | 1.6 ± 0.034
x2 = 0.433 | 1.69 ± 0.036
x2 = 0.4869 | 1.73 ± 0.037
x2 = 0.534 | 1.74 ± 0.037
x2 = 0.5836 | 1.72 ± 0.037
x2 = 0.6005 | 1.7 ± 0.036
x2 = 0.6419 | 1.65 ± 0.035
x2 = 0.6885 | 1.56 ± 0.033
x2 = 0.7366 | 1.45 ± 0.031
x2 = 0.7846 | 1.3 ± 0.028
x2 = 0.8345 | 1.1 ± 0.024
x2 = 0.8779 | 0.856 ± 0.019
x2 = 0.9237 | 0.588 ± 0.013
x2 = 0.9619 | 0.307 ± 0.007
